According to ChEMBL document CHEMBL1147595, “Design and synthesis of photoactivatable aryl diketo acid-containing HIV-1 integrase inhibitors as potential affinity probes” (Bioorg Med Chem Lett, 2004):
Several values for one entry are separate records, joined by “and”; a condition that tells them apart may be missing. Equal entries are not always repeated.

How the values were obtained:
[1] = target: T1, Human immunodeficiency virus type 1 integrase (Human immunodeficiency virus 1, UniProt Q7ZJM1); assay: Inhibition of Integrase (strand transfer) as measured in an in vitro assay
[2] = target: T1, Human immunodeficiency virus type 1 integrase; assay: Inhibition of Integrase (3'-processing) as measured in an in vitro assay
[3] = target: T1, Human immunodeficiency virus type 1 integrase; assay: Inhibition of Integrase catalyzed strand transfer (ST) as measured in an in vitro assay
[4] = target: T1, Human immunodeficiency virus type 1 integrase; assay: Inhibition of integrase catalyzed strand transfer (ST) as measured in an in vitro assay

T1 sequence (Q7ZJM1 whole entry): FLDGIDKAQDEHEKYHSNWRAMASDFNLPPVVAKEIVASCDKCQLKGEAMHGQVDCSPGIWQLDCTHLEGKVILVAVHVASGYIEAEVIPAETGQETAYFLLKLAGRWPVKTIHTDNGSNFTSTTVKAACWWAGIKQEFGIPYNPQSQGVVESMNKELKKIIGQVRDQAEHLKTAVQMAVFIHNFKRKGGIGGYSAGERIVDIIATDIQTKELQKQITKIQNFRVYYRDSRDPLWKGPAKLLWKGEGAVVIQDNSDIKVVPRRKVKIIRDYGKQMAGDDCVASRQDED

O=C(O)C(=O)CC(=O)c1cccc(Cc2ccccc2)c1
IC50 [1]: < 0.1 µM

O=C(O)C(=O)CC(=O)c1cccc(C(=O)c2ccccc2)c1
IC50 [2]: > 100 µM | IC50 [3]: 2.1 µM | IC50 [4]: 2.7 µM

[N-]=[N+]=Nc1cccc(C(=O)CC(=O)C(=O)O)c1
IC50 [2]: > 100 µM | IC50 [3]: 5.3 µM and 5.2 µM

O=C(O)C(=O)CC(=O)c1cccc(OCc2ccc(C(=O)c3ccccc3)cc2)c1
IC50 [2]: > 100 µM | IC50 [3]: 19 µM and 29 µM
